Measurements reported in US12617837B2, “Composition for use in treatment of allergic diseases” (UNIVERSITY OF TSUKUBA, priority 2019, dated 2026).

B1: rPAIL (protein, UniProt Q05097 2-122, looked up)
PA-I galactophilic lectin: AWKGEVLANNEAGQVTSIIYNPGDVITIVAAGWASYGPTQKWGPQGDREHPDQGLICHDAFCGALVMKIGNSGTIPVNTGLFRWVAPNNVQGAITLIYNDVPGTYGNNSGSFSVNIGKDQS

How the values were obtained:
mouse Clec10a = target: T1, mouse Clec10a (Mus musculus, UniProt P49300); experiment: Mouse Clec10a-CD3ζ NFAT-GFP reporter cell assay; assay type: cell-based; conditions: for GFP expression in mouse Clec10a reporter cells: stimulation with coated plates, 18 hours, flow cytometry
T1 construct: an extracellular and transmembrane portions of Clec10a fused to a cytoplasmic portion of CD3; expressed in transfected cells; host or cells: 2B4-NFAT-GFP reporter cells, pMXs-puro retroviral vector
T1 sequence (P49300 57-304 limits assumed): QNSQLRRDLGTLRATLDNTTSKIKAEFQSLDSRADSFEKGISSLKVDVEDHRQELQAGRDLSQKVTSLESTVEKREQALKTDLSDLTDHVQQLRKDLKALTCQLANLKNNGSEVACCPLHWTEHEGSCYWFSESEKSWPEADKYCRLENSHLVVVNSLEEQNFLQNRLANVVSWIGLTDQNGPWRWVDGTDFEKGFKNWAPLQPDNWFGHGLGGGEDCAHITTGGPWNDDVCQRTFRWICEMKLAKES
Experimental: (§1) The intracellular region of human CD3ζ was obtained from a vector provided by LL Lanier (University of California, San Francisco). The extracellular region of mouse or human Clec10a or the extracellular region of human Asgr1 was subcloned into a pMXs-puro retroviral vector. 2B4-NFAT-GFP reporter cells were provided from H. Arase (University of Osaka). 2B4-NFAT-GFP reporter cells stably expressing mouse or human Clec10a were made as described previously. The reporter cells were incubated for 18 hours in the presence or absence of anti-Clec10a mAb, Lewis X (GlycoTech), Lewes Y (GlycoTech), galactose (Sigma-Aldrich), glucose (Sigma-Aldrich) or mannose (Sigma-Aldrich). The reporter cells were also cultured on a galactosidase (R & D Systems, 5704 GH or 5549 GH) or glucosidase (R & D Systems, 8329-GH), or Clec10 ligand-coated plate, or an HDM extract-coated plate treated with size-fractionated Clec10a ligand or untreated. Activation of NFAT-GFP was monitored by flow cytometry.
To test whether Clec10a recognized glycosylated proteins contained in HDM, NFAT-GFP reporter cells (Clec10a reporter cells) were made which expressed chimeric fusion proteins inch ling an extracellular and transmembrane portions of Clec10a fused to a cytoplasmic portion of CD3.

Clec10a-Fc [1] = target: T2, Clec10a-Fc (Mus musculus, UniProt P49300); experiment: Sugar conjugate (glycan) microarray analysis of Clec10a-Fc (Table 7); assay type: binding; conditions: for Signal value, Clec10a-Fc: glycan microarray probed with Clec10a-Fc; for Signal value, Clec10a-Fc with EDTA: glycan microarray probed with Clec10a-Fc with EDTA
T2 construct: cloning the extracellular region of mouse Clec10a into a pME18S expression vector; made in house; host or cells: HEK293T cells
T2 sequence (P49300 57-304 limits assumed): T1 sequence (P49300 57-304 limits assumed)
Experimental: A sugar conjugate microarray containing 98 sugar conjugates (Table 3) was prepared according to a known method using a non-contact microarray printing robot (MicroSys 4000; Genomic Solutions).

human IgG1 = experiment: Glycan microarray probed with human IgG1 (control of Table 7); assay type: binding
Clec10a-Fc [2] = target: T2, Clec10a-Fc; experiment: ELISA of Clec10a-Fc binding to glycan-coated plates; conditions: plates coated with Lewis X or Lewis Y
From the text: A mouse Clec10a chimeric construct (Clec10a-Fc) was made by cloning the extracellular region of mouse Clec10a into a pME18S expression vector containing the Fc region of human IgG1. Clec10a-Fc was transfected into HEK293T cells using Lipofectamine 2000 (Thermo Fisher Scientific) and the medium was then replaced with GIT medium (KOHJIN BIO). Clec10a-Fc was purified from the culture supernatants using protein a agarose (Bio-Rad Laboratories).
An ELISA system with Clec10a applied to glycan-coated plates was constructed by a routine method to study the binding of each glycan with Clec10a. In the ELISA system, with the expectation that a multivalent effect is achieved by binding a plurality of glycans to the polymeric scaffold, the glycans were bound to the polymeric scaffold and presented to Clec10a. […]
A PBS solution containing 1 μg/well, 0.1 μg/well, or 0.01 μg/well of the polymeric scaffold presenting the glycans at the location “Sugar” of the above formula as described above (the modification rate was 20% as per the above formula) was introduced into a 96 well plate, and incubation was performed overnight at room temperature so that the wells were coated with the glycans. […] After 1-hour incubation at room temperature, the unbound Clec10a-Fc was washed, and Clec10a-Fc bound to the plate surface was quantified with peroxidase-labeled anti-Fc antibodies. […]

BMMP = experiment: Immunoprecipitation/immunoblot of SHP-1 recruitment to Clec10a in HDM-stimulated BMMP; assay type: cell-based, mouse; conditions: BMMP pretreated with Syk inhibitor, HDM extract 100 μg/mL
Experimental: To analyze association of Clec10a with Syk or SHP-1, BMMP was pretreated in the presence or absence of […] Syk inhibitor IV (Merck, 574714) at 37° C. for 30 minutes and stimulated with an HDM extract (100 μg/mL) at 37° C. for 0 min, 10 min, or 30 min. BMMP was lysed with a 0.2% digitonin buffer and immunoprecipitated with anti-Clec10a mAb. An immune precipitate was transferred onto a PVDF membrane as described above and immunoblotted using anti-Syk antibodies, anti-SHP-1 antibodies, or anti-Clec10a antibodies, and then detected with HRP-labeled anti-rabbit IgG antibodies or goat IgG antibodies. All proteins were detected using enhanced chemiluminescence (Thermo Fisher Scientific).

[3] = tested on: skin inflammation against lipopolysaccharides (LPS); experiment: LPS-induced skin inflammation, intradermal LPS with polymeric scaffold presenting T antigen; assay type: in vivo, mouse; conditions: 50 μg LPS and 20 μg T antigen scaffold intradermal daily, Day 5
Experimental: It was examined whether one of them, T antigen, could suppress skin inflammation against lipopolysaccharides (LPS). The polymeric scaffolds presenting 50 μg LPS and 20 μg T antigen were intradermally injected in the mouse back daily and the epidermal thickness was observed on Day 5. […] In the Clec10a-knockout mice, the epidermal thickness was equal to or greater than that in the WT.

human Asgr1 = target: T3, human Asgr1 (Homo sapiens, UniProt P07306); experiment: Human Asgr1-CD3ζ NFAT-GFP reporter cell assay; assay type: cell-based
T3 construct: the extracellular region of human Asgr1 was subcloned into a pMXs-puro retroviral vector; expressed in transfected cells
T3 sequence (P07306 62-291 limits assumed): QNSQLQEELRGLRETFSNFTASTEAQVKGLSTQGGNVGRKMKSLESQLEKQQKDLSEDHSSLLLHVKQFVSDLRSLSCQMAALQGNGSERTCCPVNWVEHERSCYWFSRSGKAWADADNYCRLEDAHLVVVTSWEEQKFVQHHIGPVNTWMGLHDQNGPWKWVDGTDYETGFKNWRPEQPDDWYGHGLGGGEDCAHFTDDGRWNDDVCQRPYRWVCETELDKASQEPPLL
Experimental: as §1
(§2) The hemITAM sequence (YxxL) was not found in human Clec10a and could only be found in human Asgr1 (see panel c in FIG. 4). […] Upon confirmation of protein expression, human Asgr1 expressed in MP in the human skin, similarly to Clec10a expression in the mouse skin (see panel e in FIG. 4). […]

human Clec10a = target: T4, human Clec10a (Homo sapiens, UniProt Q8IUN9); experiment: Human Clec10a-CD3ζ NFAT-GFP reporter cell assay; assay type: cell-based; conditions: addition of sugar, HDM-coated plates
T4 construct: The extracellular region of mouse or human Clec10a or the extracellular region of human Asgr1 was subcloned; expressed in transfected cells; host or cells: 2B4-NFAT-GFP reporter cells, pMXs-puro retroviral vector
T4 sequence (Q8IUN9 61-316 limits assumed): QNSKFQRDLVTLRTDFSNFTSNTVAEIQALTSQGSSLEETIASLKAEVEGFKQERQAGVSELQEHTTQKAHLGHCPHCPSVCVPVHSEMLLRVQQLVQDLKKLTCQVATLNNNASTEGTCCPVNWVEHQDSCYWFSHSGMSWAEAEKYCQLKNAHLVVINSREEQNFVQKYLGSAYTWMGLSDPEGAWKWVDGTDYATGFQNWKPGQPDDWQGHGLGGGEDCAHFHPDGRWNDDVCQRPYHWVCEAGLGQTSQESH
Experimental: as §1, §2

[4] = tested on: lectins (96 lectins of Table 2); experiment: Lectin microarray analysis of Clec10a ligand in HDM (Table 6); assay type: binding; conditions: Target: Pull-down assay sample from HDM using Clec10a-Fc (Clec10a ligand); signal at each lectin spot of the lectin microarray
Experimental: Lectin microarrays were made using a non-contact microarray printing robot (MicroSys4000; Genomic Solutions) according to the previous method. Samples were fluorescently labeled with Cy3 Mono-Reactive dye (Ge) and excess Cy3 was removed using a Sephadex g-25 desalting column (Ge). After 10 fold dilution with a probe solution (25 mM Tris-HCl, pH 7.5, 140 mM NaCl) (TBS) containing 2.7 mM KCl, 1 mM CaCl2, 1 mM MnCl2, and 1% Triton X-100, a Cy3-labeled sample was applied to a lectin microarray and incubated at 20° C. overnight. The sample was washed with a probe solution, and a fluorescence image was obtained using an evanescent-field activated fluorescence scanner (Bio-Rad scan 200, Rexxam Co. Ltd.). Lectin signals in triplicate spots were averaged for each protein sample and normalized to an average value of 96 lectins.

Molecule | GFP expression in mouse Clec10a reporter cells (mouse Clec10a) | Signal value, Clec10a-Fc (Clec10a-Fc [1]) | Signal value, Clec10a-Fc with EDTA (Clec10a-Fc [1]) | Signal value, human IgG1 (human IgG1) | further results
CC(=O)N[C@@H]1[C@@H](O[C@@H]2O[C@@H](C)[C@@H](O)[C@@H](O)[C@@H]2O)[C@H](O[C@@H]2O[C@H](CO)[C@H](O)[C@H](O)[C@H]2O)[C@@H](CO)O[C@H]1O [Lewis X, reference compound] | expressed GFP |  |  |  | 
CC(=O)N[C@@H]1[C@@H](O[C@@H]2O[C@@H](C)[C@@H](O)[C@@H](O)[C@@H]2O)[C@H](O[C@@H]2O[C@H](CO)[C@H](O)[C@H](O)[C@H]2O[C@@H]2O[C@@H](C)[C@@H](O)[C@@H](O)[C@@H]2O)[C@@H](CO)O[C@H]1O [Lewis Y, reference compound] | did not respond | 0 | 0 | 0 | Binding of Clec10a-Fc to coated plates (ELISA) (Clec10a-Fc [2]): not bound
COc1ccc(-c2cc3nccn3c(Nc3ncccc3C(N)=O)n2)cc1OC [Syk inhibitor IV] |  |  |  |  | Recruitment of HDM-induced SHP-1 to Clec10a (BMMP): suppressed the recruitment of HDM-induced SHP-1 to Clec10a
CC(=O)N[C@H]1C(O)O[C@H](CO)[C@H](O)[C@@H]1O[C@@H]1O[C@H](CO)[C@H](O)[C@H](O)[C@H]1O (stereo partly drawn) [T antigen, Galβ(1-3)GalNAc] | activated Clec10a in a dose-dependent manner |  |  |  | Binding of Clec10a-Fc in glycan microarray (Clec10a-Fc [1]; Clec10a-Fc 10 μg/mL): binds; Epidermal thickness ([3]; Clec10a knockout mice): epidermal thickness suppressive effect of the T antigen was not observed; Epidermal thickness ([3]; WT mice): increase in thickness of the skin by LPS was suppressed
O=C[C@H](O)[C@@H](O)[C@@H](O)[C@H](O)CO [galactose] |  |  |  |  | Offset of Clec10a ligand-induced activation of human Asgr1 reporter cells (human Asgr1; addition of galactose to the system): offset, in a concentration dependent manner; Inhibition of HDM-induced GFP expression in human Asgr1 reporter cells (human Asgr1; addition of sugar, HDM-coated plates): inhibited the expression of GFP induced by HDM; Inhibition of HDM-induced GFP expression in mouse Clec10a reporter cells (mouse Clec10a; pretreatment of the reporter cells, HDM-coated plates): inhibited GFP expression; Inhibition of HDM-induced GFP expression in human Clec10a reporter cells (human Clec10a): only in the Asgr1 reporter cells
Galβ 1-3(Fucα 1-4)GlcNAcβ 1-PAA [LeA] | activated Clec10a in a dose-dependent manner | 5532 | 0 | 0 | 
Galβ.1-4(Fucα 1-3)GlcNAcβ 1-PAA [LeX] | activated Clec10a in a dose-dependent manner | 2535 | 0 | 0 | 
B1 |  | 0 | 0 | 0 | Signal value, Target [4]: 0
